Source: the supplement of paper PMC10307832

Compound: CCN(CCO)CCCC(C)Nc1ccnc2cc(Cl)ccc12 [Hydroxychloroquine]
Experiment: relative viability (nuclei count vs DMSO), 5 days (fraction); higher = more cells survive
In short: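 Only plates meeting two conditions passed: control CV below 25% and at least one doubling. Lung cancer cell lines, kept overnight at 37 °C in 1536-well plates, were pinned with five library-drug doses (not always all listed) √10 apart on vehicle-anchored plates and grown 5 days without medium change. A one-step fix, permeabilisation and Hoechst stain preceded 4× imaging and MetaXpress nuclear counting. Viability equals treated-well nuclei divided by vehicle-well nuclei, as the median over plates.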

| Cell Line | relative viability (0.5 µM) | relative viability (1.581 µM) | relative viability (5 µM) | relative viability (15.81 µM) | relative viability (50 µM) |
| --- | --- | --- | --- | --- | --- |
| COR-L 105 | 0.875 | 0.935 | 0.876 | 0.804 | 0.864 |
| LK-2 | 1.01 | 0.96 | 0.941 | 1.14 | 1.24 |
| NCI-H838 | 1.02 | 0.958 | 0.984 | 0.975 | 1.12 |
| SK-LU-1 | 1.19 | 0.983 | 0.949 | 1.03 | 1.08 |
| NCI-H2023 | 1 | 1.03 | 0.941 | 0.981 | 1.13 |
| NCI-H322M | 0.955 | 0.933 | 0.957 | 0.935 | 0.983 |
| NCI-H1666 | 0.986 | 0.944 | 1.01 | 0.966 | 0.952 |
| NCI-H1648 | 0.817 | 1.09 | 0.775 | 0.992 | 0.825 |
| NCI-H2087 | 0.971 | 0.923 | 1 | 1.06 | 0.98 |
| LU99A | 1.01 | 0.874 | 0.938 | 0.951 | 1.02 |
| HCC-366 | 1.01 | 0.981 | 0.986 | 1.06 | 1.03 |
| EKVX | 0.962 | 0.902 | 0.893 | 1.02 | 1.01 |
| NCI-H522 | 1.01 | 0.844 | 0.95 | 0.836 | 0.954 |
| NCI-H1755 | 1.05 | 0.899 | 0.928 | 0.99 | 0.941 |
| NCI-H650 | 1 | 0.896 | 0.741 | 1.04 | 0.955 |
| LC-2-ad | 1 | 0.982 | 0.996 | 0.998 | 1.02 |
| NCI-H1793 | 1.03 | 0.791 | 0.916 | 0.866 | 0.998 |
| HCC-827 | 1.03 | 1.02 | 1.04 | 1.02 | 1.06 |
| HCC-78 | 1.04 | 0.903 | 1.03 | 1.01 | 0.94 |
| NCI-H2085 | 1 | 0.859 | 0.964 | 0.977 | 0.989 |
| PC-3 [JPC-3] | 1.01 | 1.08 | 0.957 | 1.06 | 1.02 |
| NCI-H2342 | 0.986 | 0.897 | 0.987 | 0.991 | 1.13 |
| A-427 | 0.995 | 0.945 | 0.964 | 1 | 0.968 |
| H3255 | 0.982 | 0.946 | 0.974 | 0.951 | 0.951 |
| HCC-44 | 1.04 | 0.996 | 1.01 | 1.01 | 1.04 |
| NCI-H1734 | 0.918 | 0.869 | 0.989 | 0.942 | 1.02 |

| Cell Line | relative viability (0.5 µM) | relative viability (1.581 µM) | relative viability (5 µM) | relative viability (15.81 µM) | relative viability (50 µM) |
| --- | --- | --- | --- | --- | --- |
| NCI-H2228 | 1.05 | 0.959 | 0.945 | 1.11 | 1.08 |
| ABC-1 | 0.89 | 0.854 | 0.856 | 0.885 | 0.91 |
| COR-L23 | 1.06 | 1.17 | 1.16 | 1.08 | 1.03 |
| NCI-H727 | 1.04 | 0.815 | 1.04 | 0.898 | 0.911 |
| NCI-H1993 | 0.974 | 0.842 | 0.939 | 0.883 | 1.02 |
| NCI-H1437 | 0.994 | 1 | 0.926 | 0.997 | 1.04 |
| NCI-H441 | 1.05 | 0.926 | 1.33 | 1.13 | 1.03 |
| 201T | 0.965 | 0.974 | 0.968 | 0.981 | 1.04 |
| NCI-H358 | 0.851 | 0.884 | 0.88 | 0.888 | 0.877 |
| ChaGo-K-1 | 0.958 | 1.07 | 0.911 | 1.01 | 1.03 |
| NCI-H1650 | 0.956 | 1.08 | 0.857 | 0.806 | 0.903 |
| LOU-NH91 | 0.96 | 0.794 | 0.944 | 0.95 | 0.901 |
| HOP-62 | 1.04 | 1.01 | 1.05 | 1.08 | 1.08 |
| NCI-H1915 | 0.961 | 1.01 | 0.981 | 1.01 | 1.06 |
| NCI-H3122 | 0.999 | 0.997 | 0.99 | 1.05 | 1.06 |
| NCI-H1651 | 0.974 | 0.981 | 1 | 1.01 | 1.1 |
| EBC-1 | 1.01 | 0.897 | 1.05 | 0.973 | 1.13 |
| PC-14 | 1.03 | 0.961 | 0.956 | 1.05 | 1.01 |
| NCI-H647 | 1 | 1.07 | 0.894 | 0.816 | 0.975 |
| SW 1573 | 0.918 | 0.832 | 0.983 | 1.07 | 1.02 |
| NCI-H460 | 0.973 | 1 | 1.01 | 1.03 | 1.11 |
| NCI-H661 | 0.966 | 0.93 | 0.921 | 0.976 | 0.994 |
| SK-MES-1 | 1.06 | 0.959 | 1.07 | 1.05 | 0.995 |
| NCI-H1792 | 0.945 | 1.03 | 0.859 | 0.783 | 0.776 |
| NCI-H1355 | 1.04 | 0.956 | 1 | 0.983 | 1.05 |
| UMC-11 | 0.988 | 0.849 | 1.01 | 1.05 | 1.12 |

| Cell Line | relative viability (0.5 µM) | relative viability (1.581 µM) | relative viability (5 µM) | relative viability (15.81 µM) | relative viability (50 µM) |
| --- | --- | --- | --- | --- | --- |
| A549 | 1.01 | 0.945 | 1.03 | 0.928 | 1.08 |
| NCI-H2347 | 1.1 | 0.935 | 1.04 | 0.965 | 1.03 |
| LCLC-97TM1 | 1.14 | 1.06 | 1.03 | 0.944 | 0.946 |
| EMC-BAC-2 | 1.05 | 0.824 | 0.953 | 1.02 | 0.912 |
| NCI-H1975 | 0.973 | 0.977 | 0.91 | 1 | 1.06 |
| BEN | 1.04 | 0.894 | 0.977 | 1.06 | 1.07 |
| NCI-H1703 | 0.912 | 0.79 | 0.946 | 0.924 | 0.898 |
| NCI-H23 | 1.04 | 0.809 | 0.961 | 0.915 | 1.01 |
| NCI-H596 | 1.04 | 0.934 | 0.892 | 1.03 | 1.15 |
| CAL-12T | 1.01 | 0.973 | 0.957 | 0.979 | 1.02 |
| EPLC-272H | 0.963 | 0.843 | 0.98 | 0.94 | 1.08 |
| LCLC-103H | 1.01 | 0.932 | 0.998 | 1 | 1.01 |
| NCI-H2405 | 1.03 | 0.955 | 0.968 | 1 | 1.01 |
| HCC-15 | 1.08 | 0.956 | 1.04 | 1.06 | 1.04 |
| RERF-LC-KJ | 0.937 | 0.978 | 0.99 | 0.939 | 1.05 |
| NCI-H1944 | 0.983 | 0.966 | 0.925 | 0.919 | 0.994 |
| HARA | 1.23 | 0.938 | 0.876 | 1 | 0.903 |
| NCI-H1563 | 0.946 | 0.744 | 0.912 | 0.99 | 0.966 |
| NCI-H2126 | 1.02 | 0.967 | 0.974 | 0.992 | 1.06 |
| LXF-289 | 1.06 | 1.01 | 1.03 | 1.02 | 1.07 |
| NCI-H520 | 1.07 | 1.01 | 0.906 | 0.923 | 1.07 |
| NCI-H1395 | 0.887 | 0.847 | 0.81 | 0.83 | 0.854 |
| NCI-H2170 | 0.969 | 1.15 | 0.992 | 0.995 | 1.15 |
| NCI-H2009 | 0.979 | 1.04 | 1.06 | 0.994 | 1.07 |
